The nature of data set [1]: Cytotoxicity against human MRC5 fibroblast cells assessed as reduction in cell viability measured after 3 days by fluorometry. Type of data set: toxicity, cell-based. Particulars: time 3 day.
Data set [2] can be described thus: Cytotoxicity against Swiss mouse peritoneal macrophages assessed as reduction in cell viability measured after 5 days by microscopic analysis. The class given is toxicity, cell-based, Macrophage. Particulars: time 5 day.
The next data set deals with Trypanosoma cruzi. As to the kind of experiment: Antitrypanosomal activity against intracellular Trypanosoma cruzi Tulahuen amastigotes expressing CL2 beta-galactosidase in human MRC5 cells assessed as parasite growth inhibition using chlorophenol red beta-D-galactopyranoside as substrate treated for 7 days by spectrophotometry. The class given is functional, organism-based. Particulars: MRC5, 168 h.

The test system of a further data set is Leishmania infantum. As to the kind of experiment: Antileishmanial activity against intracellular Leishmania infantum MHOM/MA(BE)/67 amastigotes infected in Swiss mouse peritoneal macrophages assessed as parasite growth inhibition incubated for 5 days by giemsa staining based microscopic analysis. Conditions: MHOM/MA(BE)/67, Macrophage, 120 h. Type of data set: functional, organism-based.

Data set [3] can be described thus: Selectivity index, ratio of CC50 for human MRC-5 cells to EC50 for antitrypanosomal activity against intracellular Trypanosoma cruzi Tulahuen amastigotes expressing CL2 beta-galactosidase in human MRC5 cells. The class given is toxicity, cell-based. Particulars: read-out: Selectivity Index.
Data set [4] in a line: Selectivity index, ratio of CC50 for Swiss mouse peritoneal macrophages to EC50 for antileishmanial activity against intracellular Leishmania infantum MHOM/MA(BE)/67 amastigotes infected in Swiss mouse peritoneal macrophages. Type of data set: toxicity, cell-based. Conditions: read-out: Selectivity Index.

The structures appear in SMILES notation. Bounds are passed on as bounds.

Results on 15 compounds are retold here after ChEMBL document CHEMBL5131491, “N6-modification of 7-Deazapurine nucleoside analogues as Anti-Trypanosoma cruzi and anti-Leishmania agents: Structure-activity relationship exploration and In vivo evaluation” (Eur J Med Chem, 2022).

Usually CC50 stands for the concentration giving 50% cytotoxicity. The term EC50 denotes the concentration at which the effect is half-maximal.

Regarding `CC(C)Nc1ncnc2c1ccn2[C@@H]1O[C@H](CO)[C@@H](O)[C@H]1O`, the CC50 at 72 h in data set [1] is greater than 64 µM. The half-maximal cytotoxic concentration (CC50) at 120 h in data set [2] is greater than 64 µM. For the same compound, the EC50 in the data set with Trypanosoma cruzi and in the data set on Leishmania infantum was greater than 64 µM in each case.

As for `Nc1ccnc2c1ccn2[C@@H]1O[C@H](CO)[C@@H](O)[C@H]1O`, the selectivity ratio is greater than 47.1 in data set [3] and greater than 1.65 in data set [4]. Besides, the CC50 at 72 h in data set [1] worked out at 17.9 µM. For the same compound, the CC50 at 120 h in data set [2] was greater than 64 µM. Besides, the EC50 in the data set on Trypanosoma cruzi came out at 2.27 µM; in the data set on Leishmania infantum, 38.9 µM.

Take `CCNc1ncnc2c1ccn2[C@@H]1O[C@H](CO)[C@@H](O)[C@H]1O`: the selectivity ratio is greater than 12.6 in data set [3] and greater than 125 in data set [4]. Also, in data set [1], the CC50 at 72 h was greater than 64 µM. Also, in data set [2], the CC50 at 120 h was greater than 64 µM. For the same compound, the figures for the EC50 in the data set with Trypanosoma cruzi and with Leishmania infantum were 5.08 µM and 0.51 µM, respectively.

Regarding `OC[C@H]1O[C@@H](n2ccc3c(Nc4ccccc4)ncnc32)[C@H](O)[C@@H]1O`, the selectivity ratio is greater than 8.11 in data set [3] and 1.46 in data set [4]. Besides, the CC50 at 72 h in data set [1] is greater than 64 µM. The cytotoxic concentration (CC50) at 120 h in data set [2] was determined as 2 µM. Also, the EC50 in the data set on Trypanosoma cruzi came to 7.89 µM; with Leishmania infantum, 1.37 µM.

`CCCNc1ncnc2c1ccn2[C@@H]1O[C@H](CO)[C@@H](O)[C@H]1O`: in data set [3], the selectivity ratio is greater than 4.51. Also, the CC50 at 72 h in data set [1] was greater than 64 µM. Also, the CC50 at 120 h in data set [2] was greater than 64 µM. Also, the values for the EC50 in the data set on Trypanosoma cruzi and with Leishmania infantum were 14.2 µM and greater than 64 µM, respectively.

Consider `CN(C)c1ncnc2c1ccn2[C@@H]1O[C@H](CO)[C@@H](O)[C@H]1O`, for which the selectivity ratio in data set [3] amounted to 4.28. Further, the CC50 at 72 h in data set [1] came to 7.06 µM. Also, the 50% cytotoxic concentration (CC50) at 120 h in data set [2] was 64 µM. In addition, the EC50 is 1.65 µM with Trypanosoma cruzi and greater than 64 µM in the data set on Leishmania infantum.

Consider `CCN(CC)c1ncnc2c1ccn2[C@@H]1O[C@H](CO)[C@@H](O)[C@H]1O`, for which the CC50 at 72 h in data set [1] is greater than 64 µM. The CC50 at 120 h in data set [2] amounted to 64 µM. Further, the half-maximal effective concentration (EC50) in the data set on Trypanosoma cruzi and with Leishmania infantum was greater than 64 µM each time.

For the compound `OC[C@H]1O[C@@H](n2ccc3c(N4CCC4)ncnc32)[C@H](O)[C@@H]1O`, the selectivity ratio in data set [3] was greater than 9.6. Further, the CC50 at 72 h in data set [1] is greater than 64 µM. In addition, in data set [2], the CC50 at 120 h worked out at 64 µM. Also, the EC50 in the data set on Trypanosoma cruzi was 6.67 µM; in the data set on Leishmania infantum, greater than 64 µM.

With `OC[C@H]1O[C@@H](n2ccc3c(N4CCOCC4)ncnc32)[C@H](O)[C@@H]1O`, in data set [1], the CC50 at 72 h was greater than 64 µM. Moreover, in data set [2], the cytotoxic concentration (CC50) at 120 h is greater than 64 µM. For the same compound, the EC50 with Trypanosoma cruzi and in the data set with Leishmania infantum was greater than 64 µM throughout.

`Nc1ncc2ccn([C@@H]3O[C@H](CO)[C@@H](O)[C@H]3O)c2n1`: the selectivity ratio in data set [3] is greater than 1.89. Moreover, the CC50 at 72 h in data set [1] was greater than 64 µM. Moreover, the CC50 at 120 h in data set [2] was greater than 64 µM. In addition, the half-maximal effective concentration (EC50) in the data set with Trypanosoma cruzi is 33.8 µM; in the data set on Leishmania infantum it was greater than 64 µM.

For the compound `Nc1cnc2c(ccn2[C@@H]2O[C@H](CO)[C@@H](O)[C@H]2O)c1`, the selectivity ratio in data set [3] was 7.9. Also, in data set [1], the CC50 at 72 h was greater than 64 µM. The CC50 at 120 h in data set [2] is greater than 64 µM. The EC50 in the data set on Trypanosoma cruzi and with Leishmania infantum was greater than 64 µM throughout.

Consider `CNc1ncnc2c1ccn2[C@H]1O[C@@H](CO)[C@H](O)[C@@H]1O`, for which, in data set [3], the selectivity ratio is greater than 1.98. For the same compound, the CC50 at 72 h in data set [1] was greater than 64 µM. The CC50 at 120 h in data set [2] was greater than 64 µM. Further, the EC50 with Trypanosoma cruzi is 32.3 µM; in the data set on Leishmania infantum, greater than 64 µM.

On to `CCCCCCCCCCCCCCCCOP(=O)([O-])OCC[N+](C)(C)C` [MILTEFOSINE], for which, in the data set with Leishmania infantum, the EC50 was determined as 8.3 µM.

As to `Nc1ncnc2c1ccn2[C@@H]1O[C@H](CO)C[C@H]1O`, in data set [1], the CC50 at 72 h was greater than 64 µM. For the same compound, the CC50 at 120 h in data set [2] is greater than 64 µM. Moreover, the EC50 in the data set with Trypanosoma cruzi and in the data set with Leishmania infantum was greater than 64 µM throughout.

For `OC[C@H]1O[C@@H](n2ccc3c(N4CCCC4)ncnc32)[C@H](O)[C@@H]1O`, the CC50 at 72 h in data set [1] is greater than 64 µM. In addition, the CC50 at 120 h in data set [2] was 64 µM. Moreover, the EC50 with Trypanosoma cruzi and in the data set on Leishmania infantum was greater than 64 µM throughout.
